Test results reported in ChEMBL document CHEMBL1201862, “PubChem BioAssay data set” (2004).
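Growth conditions: 96-well plates. Treatment: test compound, 48 hours, 5 concentrations. Analysis: linear interpolation between bracketing concentrations; unreached endpoints set to highest concentration. GI50 is the concentration that inhibits growth by half.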 Activity calls are given as the source filed them. Rule as the data show it: active = GI50 up to about 1.1 µM and inactive = higher.

Assays:
Experiment in all cases: growth of human tumour cells (NCI), 48 h
[1] = test system: OVCAR-3
[2] = test system: UACC-62
[3] = test system: HOP-62
[4] = test system: EKVX
[5] = test system: UACC-257
[6] = test system: SK-MEL-28
[7] = test system: SN12C
[8] = test system: MDA-N
[9] = test system: SK-OV-3
[10] = test system: NCI-H226
[11] = test system: SF-295
[12] = test system: MDA-MB-435
[13] = test system: NCI/ADR-RES
[14] = test system: CAKI-1
[15] = test system: TK-10
[16] = test system: NCI-H23
[17] = test system: MDA-MB-231
[18] = test system: HCT-15
[19] = test system: RXF 393
[20] = test system: PC-3

Structure (SMILES)	GI50 [1]	GI50 [2]	GI50 [3]	GI50 [4]	GI50 [5]	GI50 [6]	GI50 [7]	GI50 [8]	GI50 [9]	GI50 [10]	GI50 [11]	GI50 [12]	GI50 [13]	GI50 [14]	GI50 [15]	GI50 [16]	GI50 [17]	GI50 [18] [µM]	GI50 [19]	GI50 [20]
O=[N+]([O-])/C(C(Cl)=C(Cl)Cl)=C(/Sc1ccccc1)N1CCCCC1	> 63.7 µM (inactive)	13.9 µM (inactive)	> 59.3 µM (inactive)	> 91.4 µM (inactive)	54.2 µM (inactive)	> 100 µM (inactive)	> 100 µM (inactive)	> 61.5 µM (inactive)	34.1 µM (inactive)	> 100 µM (inactive)	43.1 µM (inactive)	> 36.7 µM (inactive)	> 100 µM (inactive)	> 22.9 µM (inactive)	> 100 µM (inactive)	> 100 µM (inactive)	> 61.5 µM (inactive)	> 100	5.08 µM (inactive)	> 75.9 µM (inactive)
CCc1ncc(CO)n1Cc1cccc2ccccc12	> 100 µM (inactive)	> 100 µM (inactive)	> 100 µM (inactive)	> 100 µM (inactive)	81.8 µM (inactive)	> 100 µM (inactive)	> 100 µM (inactive)	> 100 µM (inactive)	> 100 µM (inactive)	> 100 µM (inactive)	53.1 µM (inactive)	> 100 µM (inactive)	50.9 µM (inactive)	> 100 µM (inactive)	99.5 µM (inactive)	> 100 µM (inactive)	> 100 µM (inactive)	> 100	> 100 µM (inactive)	> 100 µM (inactive)
CCN1C(=O)CS/C1=N\NC(=O)CSc1nc2ccccc2c(=O)n1CC	> 100 µM (inactive)	> 100 µM (inactive)	> 100 µM (inactive)	> 100 µM (inactive)	> 100 µM (inactive)	> 100 µM (inactive)	> 100 µM (inactive)	> 100 µM (inactive)	> 100 µM (inactive)	> 100 µM (inactive)	> 100 µM (inactive)	> 100 µM (inactive)	> 100 µM (inactive)	> 100 µM (inactive)	> 100 µM (inactive)	> 100 µM (inactive)	> 100 µM (inactive)	> 100	65.9 µM (inactive)	> 100 µM (inactive)
COc1ccc(C2OC(c3ccncc3)=NN2C)cc1F (stereo not given)	> 100 µM (inactive)	> 100 µM (inactive)	> 100 µM (inactive)	> 100 µM (inactive)	> 100 µM (inactive)	> 100 µM (inactive)	> 100 µM (inactive)	> 100 µM (inactive)	> 100 µM (inactive)	> 100 µM (inactive)	> 100 µM (inactive)	> 100 µM (inactive)	> 100 µM (inactive)	51.4 µM (inactive)	> 100 µM (inactive)	> 100 µM (inactive)	> 100 µM (inactive)	> 100	> 100 µM (inactive)	> 100 µM (inactive)
Cc1cc(C)c(S(=O)(=O)N(CCCCCCN)OCCCON(CCCCCCN)S(=O)(=O)c2c(C)cc(C)cc2C)c(C)c1	1.76 µM (inactive)	1.74 µM (inactive)	1.8 µM (inactive)	1.79 µM (inactive)	1.69 µM (inactive)	1.83 µM (inactive)	1.9 µM (inactive)	1.88 µM (inactive)	1.71 µM (inactive)	1.79 µM (inactive)	1.82 µM (inactive)	2.13 µM (inactive)	13.2 µM (inactive)	1.94 µM (inactive)	1.58 µM (inactive)	1.63 µM (inactive)	1.8 µM (inactive)	1.8	1.7 µM (inactive)	1.77 µM (inactive)
N#Cc1nnn(-c2ccccc2)c1O	> 100 µM (inactive)	> 100 µM (inactive)	> 100 µM (inactive)	> 100 µM (inactive)	> 100 µM (inactive)	> 100 µM (inactive)	> 100 µM (inactive)	> 100 µM (inactive)	> 100 µM (inactive)	> 100 µM (inactive)	> 100 µM (inactive)	> 100 µM (inactive)	> 100 µM (inactive)	> 100 µM (inactive)	> 100 µM (inactive)	> 100 µM (inactive)	> 100 µM (inactive)	> 100	> 100 µM (inactive)	> 100 µM (inactive)
Nc1nc(N)nc(CCCCc2nc(N)nc(N)n2)n1	> 100 µM (inactive)	> 100 µM (inactive)	> 100 µM (inactive)	> 100 µM (inactive)	> 100 µM (inactive)	> 100 µM (inactive)	> 100 µM (inactive)	> 100 µM (inactive)	> 100 µM (inactive)	> 100 µM (inactive)	> 100 µM (inactive)	> 100 µM (inactive)	> 100 µM (inactive)	> 100 µM (inactive)	> 100 µM (inactive)	> 100 µM (inactive)	> 100 µM (inactive)	> 100	> 100 µM (inactive)	> 100 µM (inactive)
Cc1cc(NS(=O)(=O)c2ccc(Nc3c4ccccc4nc4ccc(C(=O)Nc5ccc(S(=O)(=O)N=C(N)N)cc5)cc34)cc2)no1	> 100 µM (inactive)	> 100 µM (inactive)	> 100 µM (inactive)	> 100 µM (inactive)	> 100 µM (inactive)	> 100 µM (inactive)	> 100 µM (inactive)	> 100 µM (inactive)	> 100 µM (inactive)	> 100 µM (inactive)	> 100 µM (inactive)	> 100 µM (inactive)	> 100 µM (inactive)	> 100 µM (inactive)	> 100 µM (inactive)	> 100 µM (inactive)	> 100 µM (inactive)	> 100	> 100 µM (inactive)	> 100 µM (inactive)
CCCCCCCCCCC1OC([C@@H](O)CC[C@H](O)C2CC[C@@H](CCCCCCCC(O)CC3=CC(C)OC3=O)O2)CCC1O (stereo not given in full)	5.64 µM (inactive)	4.72 µM (inactive)	4.53 µM (inactive)	2.09 µM (inactive)	0.622 µM (active)	> 17.9 µM (inactive)	9.12 µM (inactive)	3.57 µM (inactive)	7.67 µM (inactive)	14 µM (inactive)	0.708 µM (active)	7.24 µM (inactive)	1.5 µM (inactive)	11.7 µM (inactive)	11.7 µM (inactive)	0.363 µM (active)	> 16.3 µM (inactive)	10.1	> 9.77 µM (inactive)	5.94 µM (inactive)
CC1=CC(C)C(C)N(CCNS(=O)(=O)c2ccc(C)cc2)c2ccccc21 (stereo not given)	12.5 µM (inactive)	12.2 µM (inactive)	16.3 µM (inactive)	16.4 µM (inactive)	16.1 µM (inactive)	12.9 µM (inactive)	12.6 µM (inactive)	12.5 µM (inactive)	29.6 µM (inactive)	12.3 µM (inactive)	13.8 µM (inactive)	13.5 µM (inactive)	15.2 µM (inactive)	20.4 µM (inactive)	30.5 µM (inactive)	13.6 µM (inactive)	13.8 µM (inactive)	18.2	12.1 µM (inactive)	12.5 µM (inactive)
COC(=O)c1cc(C)ccc1C1CN=NC12Cc1ccc(C)cc1C2=O (stereo not given)	36.3 µM (inactive)	54.7 µM (inactive)	> 100 µM (inactive)	46.5 µM (inactive)	34.3 µM (inactive)	> 100 µM (inactive)	44.9 µM (inactive)	31.6 µM (inactive)	38.1 µM (inactive)	24.8 µM (inactive)	38 µM (inactive)	32.2 µM (inactive)	28.5 µM (inactive)	83.4 µM (inactive)	61 µM (inactive)	34 µM (inactive)	63.8 µM (inactive)	40.1	59.6 µM (inactive)	32.4 µM (inactive)
CCCC[C@@H](C)/C=C1\CN2CCC[C@H]2[C@@](C)(OCc2ccccc2)[C@@H]1O	> 17.5 µM (inactive)	> 50 µM (inactive)	5.98 µM (inactive)	> 31.1 µM (inactive)	> 17.6 µM (inactive)	> 43 µM (inactive)	> 50 µM (inactive)	> 44 µM (inactive)	> 50 µM (inactive)	> 50 µM (inactive)	> 50 µM (inactive)	> 50 µM (inactive)	> 50 µM (inactive)	> 50 µM (inactive)	> 38.5 µM (inactive)	> 50 µM (inactive)	> 50 µM (inactive)	> 50	> 44.6 µM (inactive)	> 50 µM (inactive)
COC(=O)[C@@H]1COC(C(C)(C)C)N1C(=O)C(c1ccccc1)c1ccccc1 (stereo not given in full)	39.2 µM (inactive)	44.1 µM (inactive)	> 100 µM (inactive)	55.7 µM (inactive)	33.6 µM (inactive)	> 100 µM (inactive)	32.1 µM (inactive)	26 µM (inactive)	31.4 µM (inactive)	49.7 µM (inactive)	60.1 µM (inactive)	36.7 µM (inactive)	34 µM (inactive)	> 100 µM (inactive)	50.4 µM (inactive)	81.7 µM (inactive)	45.2 µM (inactive)	35.4	13.2 µM (inactive)	24.8 µM (inactive)
